The assay concerns P100 membrane fractions derived from Caco-2 cells. Nature of the assay: Dansylated peptide ELISA: relative binding of PAX2 and HAX42 peptides to P100 (ratio to ZElan021). As to conditions: ratio to ZElan021 = 1.00. The protocol: The peptides and proteins were analyzed by a dansylated peptide ELISA method in which 96 well plates were coated overnight at 4° C. with 100 μl/well coating protein (normally 100 μg/ml P100 membrane fraction) in 0.05M carbonate buffer pH9.6. Nonspecific binding was blocked using 200 μl/well, 2% Marvel/PBS for 2 hours at 37° C. prior to incubation with dansylated peptides. The plates were washed three times with PBS/0.05% Tween 20 and after each subsequent incubation step. […] A buffer blank control was included to ensure that background binding to plastic was not due to the antibodies used in the assay system. […] The plates were then incubated with an anti-mouse X-HRP conjugated antibody (Southern Biotech 1060-05) at a 1:10,000 dilution in blocking solution, 100 μl/well for 1 hour at room temperature. Plates were developed using 75 μl/well Bionostics TMB substrate and incubated for approximately 10 minutes. The developing reaction was stopped using Bionostics Red Stop solution (25 μl/well), and the optical density of the plates was read at 650nm.
On the technique in general: An ELISA detects its analyte on a solid surface through an enzyme-linked reagent.

Setting [1] is: PAX2 peptides, first 20 μg/ml column.
The mark [2] stands for this setting: PAX2 peptides, first 50 μg/ml column.
Setting [3] is: PAX2 peptides, second 50 μg/ml column.

Peptide text beside a SMILES is read from it. * marks the point of attachment. Dansyl = CN(C)c1cccc2c(S(=O)(=O)*)cccc12

For the molecule `CC(C)C[C@H](NC(=O)[C@H](CC(N)=O)NC(=O)[C@@H](N)CCCCNS(=O)(=O)c1cccc2c(N(C)C)cccc12)C(=O)N[C@@H](CCCNC(=N)N)C(=O)N[C@@H](CO)C(=O)N[C@@H](CC(=O)O)C(=O)N[C@@H](CC(N)=O)C(=O)N[C@@H](C)C(=O)N[C@@H](CCCCN)C(=O)N[C@@H](CCC(=O)O)C(=O)N1CCC[C@H]1C(=O)NCC(=O)N[C@@H](CC(=O)O)C(=O)N[C@@H](Cc1ccc(O)cc1)C(=O)N[C@@H](CC(N)=O)C(=O)N[C@@H](CS)C(=O)N[C@@H](CS)C(=O)NCC(=O)N[C@@H](CC(N)=O)C(=O)NCC(=O)N[C@@H](CC(N)=O)C(=O)N[C@@H](CO)C(=O)N[C@H](C(=O)NCC(=O)N[C@@H](CCCNC(=N)N)C(=O)N[C@@H](CCCCN)C(=O)N[C@H](C(=O)N[C@@H](Cc1ccccc1)C(=O)N[C@@H](CC(N)=O)C(=O)N[C@@H](CCCNC(=N)N)C(N)=O)C(C)C)[C@@H](C)O` [ZElan071] (H-K(Dansyl)NLRSDNAKEPGDYNCCGNGNSTGRKVFNR-NH2), the “Binding value at 20 μg/ml” value (HAX42 peptides) was found to be 1.22. Moreover, the “Binding value at 50 μg/ml” value stood at 0.89 (HAX42 peptides, first 50 μg/ml column) and 0.75 (HAX42 peptides, second 50 μg/ml column).

With `CC(C)C[C@H](NC(=O)[C@H](CCCNC(=N)N)NC(=O)[C@H](CCCNC(=N)N)NC(=O)[C@H](CC(N)=O)NC(=O)[C@H](C)NC(=O)[C@H](CO)NC(=O)[C@H](CO)NC(=O)[C@@H](N)CCCCNS(=O)(=O)c1cccc2c(N(C)C)cccc12)C(=O)N[C@@H](CCCNC(=N)N)C(=O)N[C@H](C(=O)N[C@@H](CCCNC(=N)N)C(N)=O)[C@@H](C)O` [ZElan075] (H-K(Dansyl)SSANRRLRTR-NH2), where the note is “PAX2 peptides”, the “Binding value at 50 μg/ml (Jackson Ab)” value was found to be 0.47 and the “Binding value at 50 μg/ml (Southern Ab)” value came out at 0.32. The “Binding value at 20 μg/ml” value under setting [1] was 0.13. Moreover, the “Binding value at 50 μg/ml” value under setting [2] worked out at 0.52. Under setting [3], the “Binding value at 50 μg/ml” value turned out to be 0.38.

For the molecule `CC(C)C[C@H](NC(=O)[C@H](CCCNC(=N)N)NC(=O)[C@H](C)NC(=O)[C@H](CC(N)=O)NC(=O)[C@H](Cc1c[nH]cn1)NC(=O)[C@H](CO)NC(=O)[C@H](CO)NC(=O)[C@@H](N)CCCCNS(=O)(=O)c1cccc2c(N(C)C)cccc12)C(=O)N[C@@H](CCCNC(=N)N)C(=O)N[C@H](C(=O)N[C@@H](CCCNC(=N)N)C(N)=O)[C@@H](C)O` [ZElan077] (H-K(Dansyl)SSHNARLRTR-NH2), under “PAX2 peptides”, the “Binding value at 50 μg/ml (Jackson Ab)” value is listed as 0.73 and the “Binding value at 50 μg/ml (Southern Ab)” value stood at 0.52. The “Binding value at 20 μg/ml” value under setting [1] is 0.20. The “Binding value at 50 μg/ml” value under setting [2] is recorded as 0.76. Under setting [3], the “Binding value at 50 μg/ml” value is 0.54.

Turning to `CC(C)C[C@H](NC(=O)[C@H](CCCNC(=N)N)NC(=O)[C@H](CCCNC(=N)N)NC(=O)[C@@H](N)CCCCNS(=O)(=O)c1cccc2c(N(C)C)cccc12)C(=O)N[C@@H](CCCNC(=N)N)C(=O)N[C@H](C(=O)N[C@@H](CCCNC(=N)N)C(N)=O)[C@@H](C)O` [ZElan058, H2N—K(dns)RRLRTR—CONH2] (H-K(Dansyl)RRLRTR-NH2), the “Binding value at 20 μg/ml” value under setting [1] turned out to be 0.05. In addition, the “Binding value at 50 μg/ml” value is 0.47 under setting [2] and 0.16 under setting [3].

In the case of `CC(C)C[C@H](NC(=O)[C@H](C)NC(=O)[C@H](CCCNC(=N)N)NC(=O)[C@H](CC(N)=O)NC(=O)[C@H](Cc1c[nH]cn1)NC(=O)[C@H](CO)NC(=O)[C@H](CO)NC(=O)[C@@H](N)CCCCNS(=O)(=O)c1cccc2c(N(C)C)cccc12)C(=O)N[C@@H](CCCNC(=N)N)C(=O)N[C@H](C(=O)N[C@@H](CCCNC(=N)N)C(N)=O)[C@@H](C)O` [ZElan078] (H-K(Dansyl)SSHNRALRTR-NH2), where the note is “PAX2 peptides”, the “Binding value at 50 μg/ml (Jackson Ab)” value is 0.68 and the “Binding value at 50 μg/ml (Southern Ab)” value came to 0.47. Besides, the “Binding value at 20 μg/ml” value under setting [1] is 0.11. Also, the “Binding value at 50 μg/ml” value under setting [2] is reported as 0.87. Further, under setting [3], the “Binding value at 50 μg/ml” value stood at 0.69.

The values above are taken from patent US6703362B1, “Random peptides that bind to gastro-intestinal tract (GIT) transport receptors and related methods” (Cytogen Corporation, priority 1997, dated 2004).
